Patent US12691124B2, “Methods of controlling and improving brain health” (ICAHN SCHOOL OF MEDICINE AT MOUNT SINAI, priority 2019, dated 2026)

Tests used:
primary cortical neurons = experiment: Hypoxia (1% O2) induced neuronal death; format: cell-based, mouse; conditions: 1% O2, 1 week pretreatment
Excerpt: While glutamate toxicity is a widely used and clinically relevant assay, there are other factors that contribute to neuronal death in vivo such as lack of oxygen which occurs after stroke or protein aggregates which are observed in many neurodegenerative disorders. To understand if the observed protective effect is specific to glutamate toxicity, neurons were exposed to either hypoxic (1% O2) environments or Aβ1-43 oligomers (FIGS. 10E and 10F).
IBET treatment protects neurons from neurotoxin-induced cell death (FIGS. 22C-22E). Dot plots show the percentage of cells that are propidium iodide negative after different neurotoxic insults when pre-treated with either control or iBET for 1 week. 6 hours and 24 hours after 1 mM glutamate exposure are shown in FIG. 22C; 18 hours, 24 hours, and 48 hours of hypoxia (1% O2) are shown in FIG. 22D; and 48 hours and 72 hours of Aβ1-43 oligomer exposure (10 μM) are shown in FIG. 22E. Two-way repeated measures ANOVA with multiple comparisons, n=3 per group, ***p<0.001. Experiments were repeated a minimum of three times.

R6/2 mice = experiment: Survival of R6/2 Huntington's mouse model; conditions: 30 mg/kg i.p. daily from 6 weeks of age for 5 weeks
primary microglia = experiment: Gene expression in primary microglia treated with IBET858; format: cell-based, mouse
Protocol: Primary Microglia Culture. Postnatal day 0 C57/Bl6 mice were decapitated in ice cold HBSS. The forebrain was rapidly dissected and treated as above in order to generate a single cell suspension. 60,000 cells per cm2 were seeded in vented, Poly-D-lysine coated flasks. Mixed glial cultures were maintained in DMEM containing 10% FBS and 1% penicillin/streptomycin for 3 weeks. After three weeks, microglia were isolated by shaking the mixed glial cultures for 4 hours at 360 rpm and re-plated at density on 100,0000 cells/cm2. Cultures were given 24 hours to settle before treatment. Cultures were pre-treated for 30 minutes with either DMSO (0.01%) or 1 uM IBET858. After 30 minutes, LPS (100 ng/ml) was added to the cultures. RNA was isolated with Trizol LS according to the manufacturer's recommendations after 1, 4 and 12 hours of LPS treatment.
To test the role of BET proteins in microglial gene expression, primary microglia cultures from mouse forebrain were treated with the brain-permeable BET inhibitors IBET858 (1 μM) for 1, 4, or 12 hours (FIG. 3A). Because loss of BET activity in macrophages negatively impacts differentiation and proliferation189, microglia identity genes were examined to understand if microglial lineage is regulated by BET proteins (FIG. 3C). Hexb, Fcrls, and Fcer1g expression was unaffected by IBET858 indicating microglial differentiation is unaffected.

## CC(=O)N1c2ccc(-c3ccc(CN4CCCCC4)cc3)cc2[C@H](Nc2ccccc2)CC1C (stereo in doubt) [IBET858]
Primary cortical neurons
  loss of neurons due to hypoxia: significantly prevents loss of neurons
R6/2 mice
  survival: rescued survival
Primary microglia; 1 μM
  immune response and cell activation pathway genes: suppresses
Primary microglia; 1 μM IBET858, 4 hours
  genes significantly down-regulated: 1245 genes
Primary microglia; 1 μM IBET858, 12 hours
  genes significantly down-regulated: 1175 genes
Primary microglia; 1 μM, 1, 4 or 12 hours
  microglia identity gene expression (Hexb, Fcrls, Fcer1g): unaffected
Primary microglia; 1 μM, all time points
  phagocytosis gene expression: also unaffected
